Data as given in patent publication US20130012432A1, “Peptides for Treatment of Obesity” (Novo Nordisk A/S, priority 2010, published 2013).
Values after ≈ are worked out from the molar mass of the structure shown. Positions of bridges follow the written chain, without caps; N, C: chain ends. Non-standard residues stand in square brackets, D forms with d. Residues, ends and D or L forms follow the SMILES beside them. Groups on a side chain read outwards from the residue. *: point of attachment. Palmitoyl(16-(5-tetrazolyl)) = O=C(CCCCCCCCCCCCCCCc1nnn[nH]1)*; Lys(CH2CO2H)2 = N[C@@H](CCCCN(CC(=O)O)CC(=O)O)C(=O)O; C18 diacid = O=C(O)CCCCCCCCCCCCCCCCC(=O)*; NTA = O=C(O)CN(CC(=O)O)CC(=O)*; Orn = NCCC[C@H](N)C(=O)O; Dap = NC[C@H](N)C(=O)O; AEEA = NCCOCCOCC(=O)O

Columns and labels:
physchem = assay: physchem
Protocol: From a stock solution in vehicle, either H2O or 10 mM phosphate, containing 1 mg (as weighed) compound per ml, 8-11 aliquots are withdrawn and pH-adjusted individually with HCl/NaOH, to cover the whole pH range.

human MC4 receptor = human MC4 receptor (Homo sapiens, UniProt P32245); assay: biochemical
Sequence of human MC4 receptor (P32245 whole entry): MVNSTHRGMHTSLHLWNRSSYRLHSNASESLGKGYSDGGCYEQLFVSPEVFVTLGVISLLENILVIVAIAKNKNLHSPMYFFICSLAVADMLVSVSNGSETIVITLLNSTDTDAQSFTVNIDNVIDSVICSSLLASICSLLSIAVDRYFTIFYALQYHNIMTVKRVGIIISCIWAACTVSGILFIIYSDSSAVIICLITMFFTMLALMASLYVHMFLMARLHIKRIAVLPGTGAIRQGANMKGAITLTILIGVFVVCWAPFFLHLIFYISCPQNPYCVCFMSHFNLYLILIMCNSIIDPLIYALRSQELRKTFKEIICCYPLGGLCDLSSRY
Protocol: Assay (V)—Melanocortin Receptor 4 (MC4) Binding Assay
In Vitro ^125NDP-α-MSH Binding to Recombinant BHK Cells Expressing Human MC4 Receptor (Filtration Assay).
The assay was performed in 5 ml minisorb vials (Sarstedt No. 55.526) or in 96-well filter-plates (Millipore MADVN 6550), and using BHK cells expressing the human MC4 receptor using BHK cells stably expressing the human MC4 receptor. The membranes were prepared from frozen or fresh cells that were homogenized in 20 mM HEPES pH 7.1, 5 mM MgCl2 and 1 mg/ml bacitracin and centrifuged at 15000 rpm at 4° C., 10 min in a Sorvall RC 5B plus, SS-34 rotor. The supernatant was discarded, and the pellets were re-suspended in buffer, homogenized and centrifuged two more times. The final pellets were resuspended in the buffer mentioned above, and the protein concentration was measured and adjusted with buffer to 14 to 17 mg/ml and the membrane preparation were kept at −80° C. until assay. The assay was run directly on a dilution of this cell membrane suspension, without any further preparation. The BHK cell membranes are kept at −80° C. until assay, and the assay is run directly on a dilution of this cell membrane suspension, without further preparation. The suspension is diluted to give maximally 10% specific binding, i.e. to approx. 50-100 fold dilution. The assay was performed in a total volume of 200 μl: 50 μl of cell suspension, 50 μl of ^125NDP-α-MSH (≈79 pM in final concentration), 50 μl of test compound and 50 μl binding buffer (pH 7) mixed and incubated for 2 h at 25° C. [binding buffer: 25 mM HEPES, pH 7.0, 1 mM CaCl2, 1 mM MgSO4, 1 mM EGTA, 0.02% Bacitracin, 0.005% Tween™ 20 and 0.1% HSA or, alternatively, 0.1% ovalbumin (Sigma; catalogue No. A-5503)]. Test compounds were dissolved in DMSO and diluted in binding buffer. Radiolabelled ligand and membranes were diluted in binding buffer. The incubation was stopped by dilution with 2×100 μl ice-cold 0.9% NaCl. The radioactivity retained on the filters was counted using a Cobra II auto gamma counter.
The data were analysed by non-linear regression analysis of binding curves, using the Windows™ program GraphPad™ Prism (GraphPad Software, USA).

[1] = pH 6.4, Solubility Conc., pH 6.4, vehicle 10 mM phosphate
[2] = pH 6.7, Solubility Conc., pH 6.7, vehicle 10 mM phosphate
[3] = pH 7, Solubility Conc., pH 7.0, vehicle 10 mM phosphate
[4] = pH 7.2, Solubility Conc., pH 7.2, vehicle 10 mM phosphate
[5] = pH 7.8, Solubility Conc., pH 7.8, vehicle 10 mM phosphate

Row | Structure (SMILES) | solubility (physchem; [1]) | solubility (physchem; [2]) | solubility (physchem; [3]) | solubility (physchem; [4]) | solubility (physchem; [5]) | Ki (human MC4 receptor) | solubility (physchem; pH 7.2, Solubility Conc.) | solubility (physchem; pH 7.3, Solubility Conc.) | solubility (physchem; pH 7.4, Solubility Conc.) | solubility (physchem; pH 7.5, Solubility Conc.) | solubility (physchem; pH 7.7, Solubility Conc.) | solubility (physchem; pH 7.9, Solubility Conc.) | also measured
1 | CC(=O)N[C@H]1CCCNC(=O)C[C@@H](C(=O)N2CCC[C@H]2C(=O)N[C@@H](CO)C(=O)N[C@@H](CO)C(=O)N[C@@H](CO)C(=O)N[C@@H](CCCCN(CC(=O)O)CC(=O)O)C(=O)N[C@@H](CO)C(=O)N[C@@H](CO)C(=O)N[C@@H](CCCCNC(=O)COCCOCCNC(=O)CCCCCCCCCCCCCCCCC(=O)O)C(N)=O)NC(=O)[C@H](Cc2c[nH]c3ccccc23)NC(=O)[C@H](CCCNC(=N)N)NC(=O)[C@@H](Cc2ccccc2)NC(=O)[C@H](Cc2c[nH]cn2)NC1=O [Example 14, Ac-c[Orn-His-D-Phe-Arg-Trp-Asp]-Pro-Ser-Ser-Ser-Lys(biscarboxymethyl)-Ser-Ser-Lys({2-[2-(17-carboxyheptadecanoylamino)ethoxy]ethoxy}acetyl)-NH2] (Ac-[Orn]H[dF]RWDPSSS[Lys(CH2CO2H)2]SSK([AEEA-C18 diacid])-NH2; lactam 1-6) | 61 µM (≈ 137 µg/mL) | 148 µM (≈ 332 µg/mL) | 485 µM (≈ 1090 µg/mL) | 507 µM (≈ 1140 µg/mL) | 506 µM (≈ 1140 µg/mL) | 800 pM | – | – | – | – | – | – | solubility (physchem; pH 6.9, Solubility Conc., pH 6.9, vehicle 10 mM phosphate): 403 µM (≈ 904 µg/mL); solubility (physchem; pH 7.3, Solubility Conc., pH 7.3, vehicle 10 mM phosphate): 535 µM (≈ 1200 µg/mL); solubility (physchem; pH 7.4, Solubility Conc., pH 7.4, vehicle 10 mM phosphate): 513 µM (≈ 1150 µg/mL); solubility (physchem; pH 8, Solubility Conc., pH 8.0, vehicle 10 mM phosphate): 517 µM (≈ 1160 µg/mL)
2 | CC(=O)N[C@H]1CC(=O)NC[C@@H](C(=O)N2CCC[C@H]2C(=O)N2CCC[C@H]2C(=O)N[C@@H](CCCNC(=N)N)C(=O)N[C@@H](CC(=O)O)C(=O)N[C@@H](CCCCNC(=O)CN(CC(=O)O)CC(=O)O)C(=O)N[C@@H](CCCCNC(=O)COCCOCCNC(=O)CCCCCCCCCCCCCCCc2nnn[nH]2)C(N)=O)NC(=O)[C@H](Cc2c[nH]c3ccccc23)NC(=O)[C@H](CCCNC(=N)N)NC(=O)[C@@H](Cc2ccccc2)NC(=O)[C@H](Cc2c[nH]cn2)NC1=O [Example 24, Ac-c[Asp-His-D-Phe-Arg-Trp-Dap]-Pro-Pro-Arg-Asp-Lys(BCMA)-Lys[(2-{2-[16-(tetrazol-5-yl)hexadecanoylamino]ethoxy}ethoxy)acetyl]-NH2] (Ac-DH[dF]RW[Dap]PPRDK(NTA)K([AEEA-Palmitoyl(16-(5-tetrazolyl))])-NH2; lactam 1-6) | – | – | – | – | – | 107000 pM | – | – | – | – | – | – | –
3 | CC(=O)N[C@H]1CCCNC(=O)C[C@@H](C(=O)N2CCC[C@H]2C(=O)N[C@@H](CO)C(=O)N[C@@H](CO)C(=O)N[C@@H](CO)C(=O)N[C@@H](CCCCN(CC(=O)O)CC(=O)O)C(=O)N[C@@H](CO)C(=O)N[C@@H](CO)C(=O)N[C@@H](CCCCNC(=O)COCCOCCNC(=O)CCCCCCCCCCCCCCCc2nnn[nH]2)C(N)=O)NC(=O)[C@H](Cc2c[nH]c3ccccc23)NC(=O)[C@H](CCCNC(=N)N)NC(=O)[C@@H](Cc2ccccc2)NC(=O)[C@H](Cc2c[nH]cn2)NC1=O [Example 28, Ac-c[Orn-His-D-Phe-Arg-Trp-Asp]-Pro-Ser-Ser-Ser-Lys(biscarboxymethyl)-Ser-Ser-Lys[(2-{2-[16-(tetrazol-5-yl)hexadecanoylamino]ethoxy}ethoxy)acetyl]-NH2] (Ac-[Orn]H[dF]RWDPSSS[Lys(CH2CO2H)2]SSK([AEEA-Palmitoyl(16-(5-tetrazolyl))])-NH2; lactam 1-6) | 59 µM (≈ 133 µg/mL) | 126 µM (≈ 284 µg/mL) | 382 µM (≈ 861 µg/mL) | 406 µM (≈ 915 µg/mL) | 433 µM (≈ 976 µg/mL) | 900 pM | – | – | – | – | – | – | solubility (physchem; pH 4.8, Solubility Conc., pH 4.8, vehicle 10 mM phosphate): 71 µM (≈ 160 µg/mL); solubility (physchem; pH 5.6, Solubility Conc., pH 5.6, vehicle 10 mM phosphate): 40 µM (≈ 90.1 µg/mL); solubility (physchem; pH 7.5, Solubility Conc., pH 7.5, vehicle 10 mM phosphate): 410 µM (≈ 924 µg/mL); solubility (physchem; pH 8.1, Solubility Conc., pH 8.1, vehicle 10 mM phosphate): 415 µM (≈ 935 µg/mL)
4 | CC(=O)N[C@H]1CCCNC(=O)C[C@@H](C(=O)N2CCC[C@H]2C(=O)N2CCC[C@H]2C(=O)N[C@@H](CCCNC(=N)N)C(=O)N[C@@H](CCC(=O)O)C(=O)N[C@@H](CCCCN(CC(=O)O)CC(=O)O)C(=O)N[C@@H](CCCCNC(=O)COCCOCCNC(=O)CCCCCCCCCCCCCCCCC(=O)O)C(N)=O)NC(=O)[C@H](Cc2c[nH]c3ccccc23)NC(=O)[C@H](CCCNC(=N)N)NC(=O)[C@@H](Cc2ccccc2)NC(=O)[C@H](Cc2c[nH]cn2)NC1=O [Example 34, Ac-c[Orn-His-D-Phe-Arg-Trp-Asp]-Pro-Pro-Arg-Glu-Lys(biscarboxymethyl)-Lys({2-[2-(17-carboxyheptadecanoylamino)ethoxy]ethoxy}acetyl)-NH2] (Ac-[Orn]H[dF]RWDPPRE[Lys(CH2CO2H)2]K([AEEA-C18 diacid])-NH2; lactam 1-6) | – | – | – | – | – | 800 pM | 165 µM (≈ 361 µg/mL) | 261 µM (≈ 572 µg/mL) | 355 µM (≈ 778 µg/mL) | – | – | – | solubility (physchem; pH 5.5, Solubility Conc.): 27 µM (≈ 59.1 µg/mL); solubility (physchem; pH 6.3, Solubility Conc.): 42 µM (≈ 92 µg/mL); solubility (physchem; pH 6.6, Solubility Conc.): 62 µM (≈ 136 µg/mL); solubility (physchem; pH 6.9, Solubility Conc.): 87 µM (≈ 191 µg/mL); solubility (physchem; pH 7.8, Solubility Conc.): 420 µM (≈ 920 µg/mL); solubility (physchem; pH 8, Solubility Conc.): 360 µM (≈ 789 µg/mL)
5 | CC(=O)N[C@H]1CC(=O)NCCCC[C@@H](C(=O)N2CCC[C@H]2C(=O)N2CCC[C@H]2C(=O)N[C@@H](CCCNC(=N)N)C(=O)N[C@@H](CC(=O)O)C(=O)N[C@@H](CCCCN(CC(=O)O)CC(=O)O)C(=O)N[C@@H](CCCCNC(=O)COCCOCCNC(=O)CCCCCCCCCCCCCCCc2nnn[nH]2)C(N)=O)NC(=O)[C@H](Cc2c[nH]c3ccccc23)NC(=O)[C@H](CCCNC(=N)N)NC(=O)[C@@H](Cc2ccccc2)NC(=O)[C@H](Cc2c[nH]cn2)NC1=O [Example 35, Ac-c[Asp-His-D-Phe-Arg-Trp-Lys]-Pro-Pro-Arg-Asp-Lys(biscarboxymethyl)-Lys[(2-{2-[16-(tetrazol-5-yl)hexadecanoylamino]ethoxy}ethoxy)acetyl]-NH2] (Ac-DH[dF]RWKPPRD[Lys(CH2CO2H)2]K([AEEA-Palmitoyl(16-(5-tetrazolyl))])-NH2; lactam 1-6) | – | – | – | – | – | 13000 pM | 126 µM (≈ 277 µg/mL) | 211 µM (≈ 464 µg/mL) | 425 µM (≈ 935 µg/mL) | 526 µM (≈ 1160 µg/mL) | 537 µM (≈ 1180 µg/mL) | 572 µM (≈ 1260 µg/mL) | solubility (physchem; pH 6.4, Solubility Conc.): 24 µM (≈ 52.8 µg/mL); solubility (physchem; pH 6.8, Solubility Conc.): 44 µM (≈ 96.8 µg/mL)
6 | CC(=O)N[C@H]1CCC(=O)NCCC[C@@H](C(=O)N2CCC[C@H]2C(=O)N2CCC[C@H]2C(=O)N[C@@H](CCCNC(=N)N)C(=O)N[C@@H](CC(=O)O)C(=O)N[C@@H](CCCCN(CC(=O)O)CC(=O)O)C(=O)N[C@@H](CCCCNC(=O)COCCOCCNC(=O)CCCCCCCCCCCCCCCCC(=O)O)C(N)=O)NC(=O)[C@H](Cc2c[nH]c3ccccc23)NC(=O)[C@H](CCCNC(=N)N)NC(=O)[C@@H](Cc2ccccc2)NC(=O)[C@H](Cc2cnc[nH]2)NC1=O [Example 38, Ac-c[Glu-His-D-Phe-Arg-Trp-Orn]-Pro-Pro-Arg-Asp-Lys(biscarboxymethyl)-Lys({2-[2-(17-carboxyheptadecanoylamino)ethoxy]ethoxy}acetyl)-NH2] (Ac-EH[dF]RW[Orn]PPRD[Lys(CH2CO2H)2]K([AEEA-C18 diacid])-NH2; lactam 1-6) | – | – | – | – | – | 900 pM | – | – | 218 µM (≈ 478 µg/mL) | 282 µM (≈ 618 µg/mL) | 422 µM (≈ 924 µg/mL) | 430 µM (≈ 942 µg/mL) | solubility (physchem; pH 5.4, Solubility Conc.): 21 µM (≈ 46 µg/mL); solubility (physchem; pH 6.2, Solubility Conc.): 36 µM (≈ 78.9 µg/mL); solubility (physchem; pH 6.5, Solubility Conc.): 58 µM (≈ 127 µg/mL); solubility (physchem; pH 7, Solubility Conc.): 111 µM (≈ 243 µg/mL); solubility (physchem; pH 7.6, Solubility Conc.): 360 µM (≈ 789 µg/mL)
